Measured values published in ChEMBL document CHEMBL4138146, “A Schmidt rearrangement-mediated synthesis of novel tetrahydro-benzo[1,4]diazepin-5-ones as potential anticancer and antiprotozoal agents” (Eur J Med Chem, 2017).
Values after ≈ are worked out from the molar mass of the structure shown.

Tests used:
HT-29 = assay: Growth inhibition of human HT-29 cells assessed as cell growth at 10 uM incubated for 48 hrs by sulforhodamine B assay relative to control; type: functional; conditions: HT-29, 48 h, read-out: Activity
SF-539 = assay: Growth inhibition of human SF539 cells assessed as cell growth at 10 uM incubated for 48 hrs by sulforhodamine B assay relative to control; type: functional; conditions: SF-539, 48 h, read-out: Activity
HCC 2998 = assay: Growth inhibition of human HCC2998 cells assessed as cell growth at 10 uM incubated for 48 hrs by sulforhodamine B assay relative to control; type: functional; conditions: HCC 2998, 48 h, read-out: Activity
IGROV-1 = assay: Growth inhibition of human IGROV1 cells assessed as cell growth at 10 uM incubated for 48 hrs by sulforhodamine B assay relative to control; type: functional; conditions: IGROV-1, 48 h, read-out: Activity
MCF7 = assay: Growth inhibition of human MCF7 cells assessed as cell growth at 10 uM incubated for 48 hrs by sulforhodamine B assay relative to control; type: functional; conditions: MCF7, 48 h, read-out: Activity
RXF 393 = assay: Growth inhibition of human RXF393 cells assessed as cell growth at 10 uM incubated for 48 hrs by sulforhodamine B assay relative to control; type: functional; conditions: RXF 393, 48 h, read-out: Activity
SF-295 = assay: Growth inhibition of human SF295 cells assessed as cell growth at 10 uM incubated for 48 hrs by sulforhodamine B assay relative to control; type: functional; conditions: SF-295, 48 h, read-out: Activity
K562 = assay: Growth inhibition of human K562 cells assessed as cell growth at 10 uM incubated for 48 hrs by sulforhodamine B assay relative to control; type: functional; conditions: K562, 48 h, read-out: Activity
A498 = assay: Growth inhibition of human A498 cells assessed as cell growth at 10 uM incubated for 48 hrs by sulforhodamine B assay relative to control; type: functional; conditions: A498, 48 h, read-out: Activity
SNB-19 = assay: Growth inhibition of human SNB19 cells assessed as cell growth at 10 uM incubated for 48 hrs by sulforhodamine B assay relative to control; type: functional; conditions: SNB-19, 48 h, read-out: Activity
HL-60(TB) = assay: Growth inhibition of human HL-60(TB) cells assessed as cell growth at 10 uM incubated for 48 hrs by sulforhodamine B assay relative to control; type: functional; conditions: HL-60, 48 h, read-out: Activity
UACC-257 = assay: Growth inhibition of human UACC257 cells assessed as cell growth at 10 uM incubated for 48 hrs by sulforhodamine B assay relative to control; type: functional; conditions: UACC-257, 48 h, read-out: Activity
OVCAR-5 = assay: Growth inhibition of human OVCAR5 cells assessed as cell growth at 10 uM incubated for 48 hrs by sulforhodamine B assay relative to control; type: functional; conditions: OVCAR-5, 48 h, read-out: Activity
CCRF-CEM = assay: Growth inhibition of human CCRF-CEM cells assessed as cell growth at 10 uM incubated for 48 hrs by sulforhodamine B assay relative to control; type: functional; conditions: read-out: Activity
KM12 = assay: Growth inhibition of human KM12 cells assessed as cell growth at 10 uM incubated for 48 hrs by sulforhodamine B assay relative to control; type: functional; conditions: KM12, 48 h, read-out: Activity
HCT-116 = assay: Growth inhibition of human HCT116 cells assessed as cell growth at 10 uM incubated for 48 hrs by sulforhodamine B assay relative to control; type: functional; conditions: HCT-116, 48 h, read-out: Activity
NCI-H460 = assay: Growth inhibition of human NCI-H460 cells assessed as cell growth at 10 uM incubated for 48 hrs by sulforhodamine B assay relative to control; type: functional; conditions: NCI-H460, 48 h, read-out: Activity
786-0 = assay: Growth inhibition of human 786-0 cells assessed as cell growth at 10 uM incubated for 48 hrs by sulforhodamine B assay relative to control; type: functional; conditions: 786-0, 48 h, read-out: Activity
EKVX = assay: Growth inhibition of human EKVX cells assessed as cell growth at 10 uM incubated for 48 hrs by sulforhodamine B assay relative to control; type: functional; conditions: read-out: Activity
SR = assay: Growth inhibition of human SR cells assessed as cell growth at 10 uM incubated for 48 hrs by sulforhodamine B assay relative to control; type: functional; conditions: read-out: Activity
HCT-15 = assay: Growth inhibition of human HCT15 cells assessed as cell growth at 10 uM incubated for 48 hrs by sulforhodamine B assay relative to control; type: functional; conditions: HCT-15, 48 h, read-out: Activity
OVCAR-8 = assay: Growth inhibition of human OVCAR8 cells assessed as cell growth at 10 uM incubated for 48 hrs by sulforhodamine B assay relative to control; type: functional; conditions: OVCAR-8, 48 h, read-out: Activity
SW-620 = assay: Growth inhibition of human SW620 cells assessed as cell growth at 10 uM incubated for 48 hrs by sulforhodamine B assay relative to control; type: functional; conditions: SW-620, 48 h, read-out: Activity
NCI-H522 = assay: Growth inhibition of human NCI-H522 cells assessed as cell growth at 10 uM incubated for 48 hrs by sulforhodamine B assay relative to control; type: functional; conditions: NCI-H522, 48 h, read-out: Activity
A549 = assay: Growth inhibition of human A549/ATCC cells assessed as cell growth at 10 uM incubated for 48 hrs by sulforhodamine B assay relative to control; type: functional; conditions: A549, 48 h, read-out: Activity
UACC-62 = assay: Growth inhibition of human UACC62 cells assessed as cell growth at 10 uM incubated for 48 hrs by sulforhodamine B assay relative to control; type: functional; conditions: UACC-62, 48 h, read-out: Activity
SK-MEL-2 = assay: Growth inhibition of human SK-MEL-2 cells incubated for 48 hrs by sulforhodamine B assay; type: functional; conditions: SK-MEL-2, 48 h; for CC50: read-out: LC50 (the source's name)
NCI-H226 = assay: Growth inhibition of human NCI-H226 cells incubated for 48 hrs by sulforhodamine B assay; type: functional; conditions: NCI-H226, 48 h; for CC50: read-out: LC50 (the source's name)
Trypanosoma cruzi = assay: Antitrypanosomal activity against Trypanosoma cruzi Tulahuen amastigote forms infected in human U937 cells after 72 hrs by beta-galactosidase reporter gene assay; type: functional, organism-based; conditions: U-937, 72 h
Leishmania panamensis = assay: Antileishmanial activity against EpiR/GFP fused Leishmania panamensis MHOM/CO/87/UA140 intracellular amastigotes infected in human […] cells after 72 hrs by flow cytometric method; type: functional, organism-based; conditions: MHOM/CO/87/UA140, 72 h
Plasmodium falciparum = assay: Antimalarial activity against chloroquine-sensitive Plasmodium falciparum 3D7 incubated for 48 hrs by malstat reagent based LDH release assay; type: functional, organism-based; conditions: 3D7, 48 h
U-937 = assay: Cytotoxicity against human U937 cells after 72 hrs by MTT assay; type: functional; conditions: U-937, 72 h, read-out: LC50 (the source's name)
MOLT-4 = assay: Growth inhibition of human MOLT4 cells assessed as cell growth at 10 uM incubated for 48 hrs by sulforhodamine B assay relative to control; type: functional; conditions: MOLT-4, 48 h, read-out: Activity

Cc1cccc2cc(C3CNC(=O)c4ccccc4N3)c(=O)[nH]c12 (stereo unspecified)
growth at 10 µM (HT-29): 81.3%
growth at 10 µM (SF-539): 94.9%
growth at 10 µM (HCC 2998): 103%
growth at 10 µM (IGROV-1): 106%
growth at 10 µM (MCF7): 98.8%
growth at 10 µM (RXF 393): 106%
growth at 10 µM (SF-295): 98.8%
growth at 10 µM (K562): 118%
growth at 10 µM (A498): 103%
growth at 10 µM (SNB-19): 114%
growth at 10 µM (HL-60(TB)): 116%
growth at 10 µM (UACC-257): 100%
growth at 10 µM (OVCAR-5): 102%
growth at 10 µM (CCRF-CEM): 123%
growth at 10 µM (KM12): 99.6%
growth at 10 µM (HCT-116): 95.5%
growth at 10 µM (NCI-H460): 109%
growth at 10 µM (786-0): 111%
growth at 10 µM (EKVX): 98.4%
growth at 10 µM (SR): 110%
growth at 10 µM (HCT-15): 102%
growth at 10 µM (OVCAR-8): 103%
growth at 10 µM (SW-620): 110%
growth at 10 µM (NCI-H522): 70%
growth at 10 µM (A549): 91.7%
growth at 10 µM (UACC-62): 106%

CCCCOc1nc2ccccc2cc1C1CNC(=O)c2ccccc2N1 (stereo unspecified)
growth at 10 µM (HT-29): 0.87%
growth at 10 µM (SF-539): -25.5%
growth at 10 µM (HCC 2998): 56.5%
growth at 10 µM (IGROV-1): 38%
growth at 10 µM (MCF7): 21.2%
growth at 10 µM (RXF 393): -14.3%
growth at 10 µM (SF-295): -5.68%
growth at 10 µM (K562): 12.8%
growth at 10 µM (A498): -11.2%
growth at 10 µM (SNB-19): 33.4%
GI50 (SK-MEL-2): 4790 nM
TGI (SK-MEL-2): 48.5 µM
CC50 (SK-MEL-2): > 100 µM
growth at 10 µM (HL-60(TB)): -8.72%
growth at 10 µM (UACC-257): 57.2%
growth at 10 µM (OVCAR-5): 55.3%
growth at 10 µM (CCRF-CEM): 12.6%
growth at 10 µM (KM12): 23.9%
growth at 10 µM (HCT-116): 15.6%
growth at 10 µM (NCI-H460): 6.89%
growth at 10 µM (786-0): 26.2%
growth at 10 µM (EKVX): 33%
growth at 10 µM (SR): 19.8%
growth at 10 µM (HCT-15): 15.3%
growth at 10 µM (OVCAR-8): 22.4%
growth at 10 µM (SW-620): 20.9%
growth at 10 µM (NCI-H522): -13.6%
growth at 10 µM (A549): 19.9%
growth at 10 µM (UACC-62): 32.6%
GI50 (NCI-H226): 3130 nM
TGI (NCI-H226): 14.9 µM
CC50 (NCI-H226): > 100 µM

O=C1NCC(c2cc3ccc(Cl)cc3[nH]c2=O)Nc2ccccc21 (stereo unspecified)
growth at 10 µM (HT-29): 72.2%
EC50 (Trypanosoma cruzi): 86 µg/mL (≈ 253 µM)
growth at 10 µM (SF-539): 95%
EC50 (Leishmania panamensis): 77.9 µg/mL (≈ 229 µM)
growth at 10 µM (HCC 2998): 105%
growth at 10 µM (IGROV-1): 96.5%
EC50 (Plasmodium falciparum): 59.3 µg/mL (≈ 175 µM)
CC50 (U-937): > 200 µg/mL
growth at 10 µM (MCF7): 97.4%
growth at 10 µM (RXF 393): 97.2%
growth at 10 µM (SF-295): 107%
growth at 10 µM (K562): 124%
growth at 10 µM (A498): 112%
growth at 10 µM (SNB-19): 108%
growth at 10 µM (HL-60(TB)): 111%
growth at 10 µM (UACC-257): 78.4%
growth at 10 µM (OVCAR-5): 97.7%
growth at 10 µM (CCRF-CEM): 134%
growth at 10 µM (KM12): 103%
growth at 10 µM (HCT-116): 87.8%
growth at 10 µM (NCI-H460): 104%
growth at 10 µM (786-0): 99.7%
growth at 10 µM (EKVX): 95.2%
growth at 10 µM (SR): 115%
growth at 10 µM (HCT-15): 103%
growth at 10 µM (OVCAR-8): 97.8%
growth at 10 µM (SW-620): 107%
growth at 10 µM (NCI-H522): 63.8%
growth at 10 µM (A549): 73.9%
growth at 10 µM (UACC-62): 106%

CCCCOc1nc2c(C)cccc2cc1C1CNC(=O)c2ccccc2N1 (stereo unspecified)
growth at 10 µM (HT-29): 61.4%
EC50 (Trypanosoma cruzi): 2.68 µg/mL (≈ 7.14 µM)
growth at 10 µM (SF-539): 68.3%
EC50 (Leishmania panamensis): 3.35 µg/mL (≈ 8.92 µM)
growth at 10 µM (HCC 2998): 101%
EC50 (Plasmodium falciparum): > 20 µg/mL
CC50 (U-937): 1 µg/mL (≈ 2.66 µM)
growth at 10 µM (MCF7): 15.8%
growth at 10 µM (RXF 393): 78.3%
growth at 10 µM (SF-295): 52.5%
growth at 10 µM (K562): 19%
growth at 10 µM (A498): 55.3%
growth at 10 µM (SNB-19): 47%
growth at 10 µM (HL-60(TB)): 26.2%
growth at 10 µM (OVCAR-5): 112%
growth at 10 µM (CCRF-CEM): 34.3%
growth at 10 µM (KM12): 56.4%
growth at 10 µM (HCT-116): 45.9%
growth at 10 µM (NCI-H460): 56.2%
growth at 10 µM (786-0): 46.2%
growth at 10 µM (EKVX): 61.9%
growth at 10 µM (SR): 18.1%
growth at 10 µM (HCT-15): 43.4%
growth at 10 µM (OVCAR-8): 81.2%
growth at 10 µM (SW-620): 42.3%
growth at 10 µM (MOLT-4): 39%
growth at 10 µM (NCI-H522): 44.8%
growth at 10 µM (A549): 60%
growth at 10 µM (UACC-62): 29.1%

COc1cccc2c1C(=O)c1c(O)c3c(c(O)c1C2=O)C[C@@](O)(C(=O)CO)C[C@@H]3O[C@H]1C[C@H](N)[C@H](O)[C@H](C)O1 [DOXORUBICIN]
GI50 (SK-MEL-2): 210 nM
CC50 (SK-MEL-2): 15.9 µM
GI50 (NCI-H226): 50 nM
CC50 (NCI-H226): 6.4 µM
